# Measurements: patent publication US4605642A, “CRF antagonists” (The Salk Institute for Biological Studies, priority 1984, dated 1986)
# Square brackets hold non-standard residues; d marks the D form. Peptide text beside a SMILES is read from it. Nle = CCCC[C@H](N)C(=O)O
# Legend:
# [1] = test system: secretion of β-endorphin by cultured rat pituitary cells; test: Blocking of β-endorphin (β-END-LI) secretion by cultured rat pituitary cells; format: cell-based; conditions: general procedure set forth in Example III
# Protocol: (§1) The effectiveness of synthetic CRF antagonists to block the secretion of ACTH and β-endorphin by cultured rat pituitary cells is measured using the procedure as generally set forth in Vale et al., Endocrinology, 91, 562 (1972). In vivo testing is carried out using the general procedure set forth in C. Rivier et al., Science, 218, 377 (1982).
# [2] = test system: secretion of ACTH by cultured rat pituitary cells; test: Blocking of oCRF-stimulated ACTH secretion by cultured rat pituitary cells; format: cell-based; conditions: general procedure set forth in Example III
# Protocol: as §1
Compound,inhibition of the secretion of β-END-LI (in words) [1],inhibition of the secretion of ACTH (in words) [2]
"CCCC[C@H](NC(=O)[C@@H](NC(=O)[C@H](CCC(=O)O)NC(=O)[C@H](CC(C)C)NC(=O)[C@H](CC(C)C)NC(=O)[C@H](CCCCN)NC(=O)[C@H](CCCNC(=N)N)NC(=O)[C@H](CC(N)=O)NC(=O)[C@H](CO)NC(=O)[C@H](Cc1c[nH]cn1)NC(=O)[C@H](C)NC(=O)[C@H](CCC(N)=O)NC(=O)[C@H](CCC(N)=O)NC(=O)[C@H](C)NC(=O)[C@H](CC(C)C)NC(=O)[C@H](CCC(N)=O)NC(=O)[C@H](CCC(=O)O)NC(=O)[C@H](C)NC(=O)[C@H](CCCNC(=N)N)NC(=O)[C@H](C)NC(=O)[C@H](C)NC(=O)[C@H](CCC(=O)O)NC(=O)[C@H](CC(C)C)NC(=O)[C@@H](NC(=O)[C@H](CCC(=O)O)NC(=O)[C@H](CCCNC(=N)N)NC(=O)[C@H](CC(C)C)NC(=O)[C@H](CC(C)C)NC(=O)[C@H](Cc1c[nH]cn1)NC(=O)[C@H](Cc1ccccc1)NC(=O)[C@@H](NC(=O)[C@H](CC(C)C)NC(=O)[C@@H](N)CC(=O)O)[C@@H](C)O)C(C)C)[C@@H](C)CC)C(N)=O [[Ala^21, Leu^38, Nle^41]-hCRF(9-41)] (H-DLTFHLLREVLEAARAEQLAQQAHSNRKLLEI[Nle]-NH2)",inhibits the secretion,inhibits the secretion
"CCCC[C@H](N)C(=O)N[C@@H](CC(=O)O)C(=O)N[C@@H](CC(C)C)C(=O)N[C@@H](CO)C(=O)N[C@@H](Cc1ccccc1)C(=O)N[C@@H](Cc1c[nH]cn1)C(=O)N[C@@H](CC(C)C)C(=O)N[C@@H](CC(C)C)C(=O)N[C@@H](CCCNC(=N)N)C(=O)N[C@@H](CCC(=O)O)C(=O)N[C@H](C(=O)N[C@@H](CC(C)C)C(=O)N[C@@H](CCC(=O)O)C(=O)N[C@@H](CCSC)C(=O)N[C@@H](C)C(=O)N[C@@H](CCCNC(=N)N)C(=O)N[C@@H](C)C(=O)N[C@@H](CCC(=O)O)C(=O)N[C@@H](CCC(N)=O)C(=O)N[C@@H](CC(C)C)C(=O)N[C@@H](C)C(=O)N[C@@H](CCC(N)=O)C(=O)N[C@@H](CCC(N)=O)C(=O)N[C@@H](C)C(=O)N[C@@H](Cc1c[nH]cn1)C(=O)N[C@@H](CC(C)C)C(=O)N[C@@H](CC(N)=O)C(=O)N[C@@H](CCCNC(=N)N)C(=O)N[C@@H](CCCCN)C(=O)N[C@@H](CC(C)C)C(=O)N[C@@H](CCSC)C(=O)N[C@@H](CCC(=O)O)C(=O)N[C@H](C(=O)N[C@H](C(N)=O)[C@@H](C)CC)[C@@H](C)CC)C(C)C [[Nle^8, Ser^11, Leu^33]-hCRF(8-41)] (H-[Nle]DLSFHLLREVLEMARAEQLAQQAHLNRKLMEII-NH2)",inhibits the secretion,inhibits the secretion
CCCC[C@H](NC(=O)[C@@H](NC(=O)[C@@H](N)CC(C)C)[C@@H](C)O)C(=O)N[C@@H](Cc1c[nH]cn1)C(=O)N[C@@H](CC(C)C)C(=O)N[C@@H](CC(C)C)C(=O)N[C@@H](CCCNC(=N)N)C(=O)N[C@@H](CCC(=O)O)C(=O)N[C@H](C(=O)N[C@@H](CC(C)C)C(=O)N[C@@H](CCC(=O)O)C(=O)N[C@@H](CCSC)C(=O)N[C@@H](C)C(=O)N[C@@H](CCCNC(=N)N)C(=O)N[C@@H](C)C(=O)N[C@@H](CCC(=O)O)C(=O)N[C@@H](CCC(N)=O)C(=O)N[C@@H](CC(C)C)C(=O)N[C@@H](C)C(=O)N[C@@H](CCC(N)=O)C(=O)N[C@@H](CCC(N)=O)C(=O)N[C@@H](C)C(=O)N[C@@H](Cc1c[nH]cn1)C(=O)N[C@@H](CO)C(=O)N[C@@H](CC(N)=O)C(=O)N[C@@H](CCCNC(=N)N)C(=O)N[C@@H](CCCCN)C(=O)N[C@@H](CC(C)C)C(=O)N[C@@H](CCSC)C(=O)N[C@@H](CCC(=O)O)C(=O)N[C@H](C(=O)N[C@H](C(N)=O)[C@@H](C)CC)[C@@H](C)CC)C(C)C [[Nle^12]-hCRF(10-41)] (H-LT[Nle]HLLREVLEMARAEQLAQQAHSNRKLMEII-NH2),inhibits the secretion,inhibits the secretion
